Results published in US9686986B2, “Herbicidal compounds” (SYNGENTA LIMITED, priority 2011, dated 2017).

Columns and labels:
Assay in all cases: Glasshouse herbicide test, pre- and post-emergence, percentage damage
Type in all cases: in vivo
[1] = tested on: Alopecurus myosuroides (ALOMY); details: 1000 g/h, evaluated after 13 days, five point scale; for percentage damage caused to the plant, ALOMY, POST Application: post-emergence; for percentage damage caused to the plant, ALOMY, PRE Application: pre-emergence
Protocol: (§1) Seeds of a variety of test species are sown in standard soil in pots (Alopecurus myosuroides (ALOMY), Setaria faberi (SETFA), Stellaria media (STEME), Echinochloa crus-galli (ECHCG), Solanum nigrum (SOLNI), Amaranthus retoflexus (AMARE), Ipomoea hederacea (IPOHE), Lolium perenne (LOLPE). After cultivation for one day (pre-emergence) or after 8 days cultivation (post-emergence) under controlled conditions in a glasshouse (at 24/16° C., day/night; 14 hours light; 65% humidity), the plants are sprayed with an aqueous spray solution derived from the formulation of the technical active ingredient in acetone/water (50:50) solution containing 0.5% Tween 20 (polyoxyethelyene sorbitan monolaurate, CAS RN 9005-64-5). Compounds ae applied at 1000 g/h. The test plants are then grown in a glasshouse under controlled conditions in a glasshouse (at 24/16° C., day/night; 14 hours light; 65% humidity) and watered twice daily. After 13 days for pre and post-emergence, the test is evaluated for the percentage damage caused to the plant. The biological activities are shown in the following table on a five point scale (5=80-100%; 4=60-79%; 3=40-59%; 2=20-39%; 1=0-19%).

[2] = tested on: Amaranthus retoflexus (AMARE); details: 1000 g/h, evaluated after 13 days, five point scale (Table B1); for percentage damage caused to the plant, AMARE, POST Application: post-emergence; for percentage damage caused to the plant, AMARE, PRE Application: pre-emergence
Protocol: as §1

[3] = tested on: Echinochloa crus-galli (ECHCG); details: 1000 g/h, evaluated after 13 days, five point scale; for percentage damage caused to the plant, ECHCG, POST Application: post-emergence; for percentage damage caused to the plant, ECHCG, PRE Application: pre-emergence
Protocol: as §1

[4] = tested on: Ipomoea hederacea (IPOHE); details: 1000 g/h, evaluated after 13 days, five point scale; for percentage damage caused to the plant, IPOHE, POST Application: post-emergence; for percentage damage caused to the plant, IPOHE, PRE Application: pre-emergence
Protocol: as §1

Setaria faberi (SETFA) = details: 1000 g/h, evaluated after 13 days, five point scale; for percentage damage caused to the plant, SETFA, POST Application: post-emergence; for percentage damage caused to the plant, SETFA, PRE Application: pre-emergence
Protocol: as §1

Solanum nigrum (SOLNI) = details: 1000 g/h, evaluated after 13 days, five point scale; for percentage damage caused to the plant, SOLNI, POST Application: post-emergence; for percentage damage caused to the plant, SOLNI, PRE Application: pre-emergence
Protocol: as §1

Compound	percentage damage caused to the plant, ALOMY, POST Application [1]	percentage damage caused to the plant, ALOMY, PRE Application [1]	percentage damage caused to the plant, AMARE, POST Application [2]	percentage damage caused to the plant, AMARE, PRE Application [2]	percentage damage caused to the plant, ECHCG, POST Application [3]	percentage damage caused to the plant, ECHCG, PRE Application [3]	percentage damage caused to the plant, IPOHE, POST Application [4]	percentage damage caused to the plant, IPOHE, PRE Application [4]	percentage damage caused to the plant, SETFA, POST Application (Setaria faberi (SETFA))	percentage damage caused to the plant, SETFA, PRE Application (Setaria faberi (SETFA))	percentage damage caused to the plant, SOLNI, POST Application (Solanum nigrum (SOLNI))	percentage damage caused to the plant, SOLNI, PRE Application (Solanum nigrum (SOLNI))
Cn1nnnc1NC(=O)c1ccc(C(F)(F)F)cc1S(C)(=O)=O [Compound 1.003]	5 (5=80-100%)	5 (5=80-100%)	5 (5=80-100%)	5 (5=80-100%)	5 (5=80-100%)	5 (5=80-100%)	5 (5=80-100%)	5 (5=80-100%)	5 (5=80-100%)	5 (5=80-100%)	5 (5=80-100%)	5 (5=80-100%)
CCc1nc(C(C)F)ccc1C(=O)Nc1nnnn1C (stereo not drawn) [Compound 1.005]	2 (2=20-39%)	3 (3=40-59%)	5 (5=80-100%)	5 (5=80-100%)	5 (5=80-100%)	5 (5=80-100%)	5 (5=80-100%)	5 (5=80-100%)	2 (2=20-39%)	3 (3=40-59%)	5 (5=80-100%)	5 (5=80-100%)
Cn1nnnc1NC(=O)c1ccc(S(C)(=O)=O)c(COCC(F)(F)F)c1Cl [Compound 1.001]	5 (5=80-100%)	5 (5=80-100%)	5 (5=80-100%)	5 (5=80-100%)	5 (5=80-100%)	5 (5=80-100%)	5 (5=80-100%)	5 (5=80-100%)	5 (5=80-100%)	5 (5=80-100%)	5 (5=80-100%)	5 (5=80-100%)
CCCn1nnnc1NC(=O)c1cc(Cl)ccc1Cl [Compound 1.004]	1 (1=0-19%)	1 (1=0-19%)	4 (4=60-79%)	5 (5=80-100%)	1 (1=0-19%)	1 (1=0-19%)	5 (5=80-100%)	1 (1=0-19%)	1 (1=0-19%)	1 (1=0-19%)	5 (5=80-100%)	4 (4=60-79%)
COCCOCc1nc(C(C)(F)F)ccc1C(=O)Nc1nnnn1C [Compound 1.008]	5 (5=80-100%)	5 (5=80-100%)	5 (5=80-100%)	5 (5=80-100%)	5 (5=80-100%)	5 (5=80-100%)	5 (5=80-100%)	5 (5=80-100%)	5 (5=80-100%)	5 (5=80-100%)	5 (5=80-100%)	5 (5=80-100%)
Cn1nnnc1NC(=O)c1cc(F)c(F)cc1[N+](=O)[O-] [Compound 1.011]	1 (1=0-19%)	1 (1=0-19%)	3 (3=40-59%)	5 (5=80-100%)	2 (2=20-39%)	1 (1=0-19%)	2 (2=20-39%)	1 (1=0-19%)	1 (1=0-19%)	1 (1=0-19%)	2 (2=20-39%)	1 (1=0-19%)
Cc1ccc([N+](=O)[O-])c(C(=O)Nc2nnnn2C)c1 [Compound 1.013]	2 (2=20-39%)	2 (2=20-39%)	4 (4=60-79%)	5 (5=80-100%)	1 (1=0-19%)	1 (1=0-19%)	5 (5=80-100%)	4 (4=60-79%)	1 (1=0-19%)	2 (2=20-39%)	5 (5=80-100%)	5 (5=80-100%)
Cn1nnnc1NC(=O)c1cc(Br)c(Cl)cc1F [Compound 1.012]	2 (2=20-39%)	1 (1=0-19%)	5 (5=80-100%)	4 (4=60-79%)	3 (3=40-59%)	1 (1=0-19%)	5 (5=80-100%)	1 (1=0-19%)	4 (4=60-79%)	1 (1=0-19%)	4 (4=60-79%)	1 (1=0-19%)
Cn1nnnc1NC(=O)c1cc(F)ccc1C(F)(F)F [Compound 1.010]	5 (5=80-100%)	5 (5=80-100%)	5 (5=80-100%)	5 (5=80-100%)	4 (4=60-79%)	4 (4=60-79%)	5 (5=80-100%)	5 (5=80-100%)	2 (2=20-39%)	2 (2=20-39%)	5 (5=80-100%)	5 (5=80-100%)
